The values that follow come from ChEMBL document CHEMBL4196157, “Inhibition of Herpes Simplex Virus-1 Entry into Human Cells by Nonsaccharide Glycosaminoglycan Mimetics” (ACS Med Chem Lett, 2018).

Structures are written as SMILES. Calls of active or inactive are those of the source. The calls are words filed in the database; no cut-off is given here.

As a reminder, the Kd is the equilibrium constant for the complex coming apart.

A short description of assay [1]: Binding affinity to HSV1 glycoprotein D. Further details: species or system Human alphaherpesvirus 1.
Assay [2] in a line: (§1) Binding affinity to recombinant HSV1 glycoprotein D (21 to 339 residues) assessed as change in intrinsic tryptophan fluorescence by spectrofluorimetric method. Also noted: species or system Human alphaherpesvirus 1.
Assay [3] has as its system Human alphaherpesvirus 1. Described as §1.
For assay [4], the system named is Human alphaherpesvirus 1. Kind of assay: Antiviral activity against Herpes simplex virus 1 KOS infected in African green monkey Vero cells assessed as inhibition of plaque formation at 5 ug treated 1 hr prior to viral infection followed by compound washout and subsequent compound addition measured after 72 hrs by Giemsa staining based assay. The format is functional, organism-based.

Take `O=C(O)C1=C[C@H](O)[C@@H](OS(=O)(=O)O)[C@H](O[C@H]2[C@H](O)[C@@H](NS(=O)(=O)O)[C@@H](O[C@H]3[C@H](O)[C@@H](OS(=O)(=O)O)[C@H](O[C@H]4[C@H](O)[C@@H](NS(=O)(=O)O)[C@@H](O[C@H]5[C@H](O)[C@@H](OS(=O)(=O)O)[C@H](O[C@H]6[C@H](OS(=O)(=O)O)[C@@H](NS(=O)(=O)O)[C@@H](O[C@H]7[C@H](O)[C@@H](OS(=O)(=O)O)[C@H](O[C@H]8[C@H](O)[C@@H](NS(=O)(=O)O)[C@@H](O)O[C@@H]8COS(=O)(=O)O)O[C@H]7C(=O)O)O[C@@H]6COS(=O)(=O)O)O[C@H]5C(=O)O)O[C@@H]4COS(=O)(=O)O)O[C@H]3C(=O)O)O[C@@H]2COS(=O)(=O)O)O1`: in assay [1], the affinity, expressed as Kd, was 18000 nM.

On to `CCOC(=O)c1c(C)oc2cc(OCc3ccccc3)c(OCCCOc3cc(OS(=O)(=O)O)cc4oc(-c5ccc(OS(=O)(=O)O)cc5)cc(=O)c34)cc12`, for which the Kd in assay [2] turned out to be 780 nM. Also, the %max in assay [3] was -157%.

In the case of `O=C(OC1[C@@H](OC(=O)c2cc(OS(=O)(=O)O)cc(OS(=O)(=O)O)c2)[C@@H](OC(=O)c2ccc(OS(=O)(=O)O)cc2OS(=O)(=O)O)C(OC(=O)c2cc(OS(=O)(=O)O)cc(OS(=O)(=O)O)c2)[C@H](OC(=O)c2cc(OS(=O)(=O)O)cc(OS(=O)(=O)O)c2)[C@H]1OC(=O)c1cc(OS(=O)(=O)O)cc(OS(=O)(=O)O)c1)c1cc(OS(=O)(=O)O)cc(OS(=O)(=O)O)c1` (single isomer, unassigned), the Kd in assay [2] came to 112 nM. In assay [3], the %max was 328%.

As for `CCOC(=O)c1c(C)oc2cc(OCc3cccc(OS(=O)(=O)O)c3)c(OCc3oc4cc(OC)c(OS(=O)(=O)O)cc4c3C(=O)OCC)cc12`, in assay [2], the Kd came to 2220 nM. The %max in assay [3] was -112%.

For `CC1OC[C@H]2O[C@H](OC(=O)c3cc(OS(=O)(=O)O)cc(OS(=O)(=O)O)c3)[C@H](OC(=O)c3cc(OS(=O)(=O)O)cc(OS(=O)(=O)O)c3)[C@@H](OC(=O)c3cc(OS(=O)(=O)O)cc(OS(=O)(=O)O)c3)[C@@H]2O1` (stereo partly drawn), in assay [2], the Kd amounted to 26 nM. For the same compound, the %max in assay [3] was determined as 87%.

Regarding `Cc1cc(Oc2cc3c(=O)c(OS(=O)(=O)O)c(-c4ccc(OS(=O)(=O)O)c(OS(=O)(=O)O)c4)oc3cc2OS(=O)(=O)O)c(C)cc1COc1cc(OS(=O)(=O)O)cc2oc(-c3ccc(OS(=O)(=O)O)c(OS(=O)(=O)O)c3)c(OS(=O)(=O)O)c(=O)c12`, the Kd in assay [2] is 22 nM. For the same compound, the %max in assay [3] is -82%.

As for `Nc1nc2c(ncn2COCCO)c(=O)[nH]1`, the inhibition entry in assay [4] is “Active”.

For the compound `O=S(=O)(O)OC[C@H]1O[C@@](COS(=O)(=O)O)(O[C@@H]2O[C@H](COS(=O)(=O)O)[C@@H](OS(=O)(=O)O)[C@H](OS(=O)(=O)O)[C@H]2OS(=O)(=O)O)[C@@H](OS(=O)(=O)O)[C@@H]1OS(=O)(=O)O`, in assay [2], the Kd stood at 150 nM. In addition, the %max in assay [3] was -52%.

Take `O=C(O[C@@H]1[C@@H](OC(=O)c2cc(OS(=O)(=O)O)cc(OS(=O)(=O)O)c2)[C@H](OC(=O)c2cc(OS(=O)(=O)O)cc(OS(=O)(=O)O)c2)[C@@H](OC(=O)c2ccc(OS(=O)(=O)O)cc2OS(=O)(=O)O)[C@H](OC(=O)c2cc(OS(=O)(=O)O)cc(OS(=O)(=O)O)c2)[C@H]1OC(=O)c1cc(OS(=O)(=O)O)cc(OS(=O)(=O)O)c1)c1cc(OS(=O)(=O)O)cc(OS(=O)(=O)O)c1`: the Kd in assay [2] turned out to be 8 nM. In assay [3], the %max is 53%.

With `CO[C@H]1O[C@H](COS(=O)(=O)O)[C@@H](O[C@@H]2O[C@@H](C(=O)O)[C@@H](O[C@H]3O[C@H](COS(=O)(=O)O)[C@@H](O[C@@H]4O[C@H](C(=O)O)[C@@H](O[C@H]5O[C@H](COS(=O)(=O)O)[C@@H](O)[C@H](O)[C@H]5NS(=O)(=O)O)[C@H](O)[C@H]4O)[C@H](OS(=O)(=O)O)[C@H]3NS(=O)(=O)O)[C@H](O)[C@H]2OS(=O)(=O)O)[C@H](O)[C@H]1NS(=O)(=O)O` [FONDAPARINUX SODIUM], the dissociation constant (Kd) in assay [2] stood at 500 nM. Moreover, the %max in assay [3] was -85%.
